Values of other authors, collected in US20080160065A1 (priority 2006, published 2008).
Read-outs that look alike come from different tables or passages of the source.

Conditions: injected intramuscularly

time to peak plasma concentration (adults): 2 h | time to peak plasma concentration (children): 1 h
SMILES: CCC[C@@H]1C[C@@H](C(=O)N[C@@H]([C@H]2O[C@H](SC)[C@H](O)[C@@H](O)[C@H]2O)[C@H](C)Cl)N(C)C1 [clindamycin]
